The record followed here is patent US9371527B2, “Compositions and methods related to protein displacement therapy for myotonic distrophy” (University of Rochester, priority 2006, dated 2016).

In the assay the test system is interaction of CUG repeat RNA with recombinant MBNL1 protein (MBNL1-PL). Put plainly: Beta-galactosidase enzymatic complementation assay. Particulars: (CUG)109 tethered to streptavidin plate. The class given is binding, human. The protocol: FIGS. 33A and 33B. […] (CUG)109 transcripts are tethered to the surface of a streptavidin-coated microtiter plate using a capture oligonucleotide that is biotinylated. The capture oligo anneals to complementary sequence at the 3′ end of the CUG repeat RNA. Recombinant human MBNL1 is expressed as a fusion with the PL fragment of beta-galactosidase. PL is a 55 amino acid fragment of beta-galactosidase. […] After incubation with test compound, unbound MBNL1-PL is washed away (FIG. 33B). Next, the complementing fragment of beta-galactosidase is added to determine the amount of MBNL1-PL that continues to interact with (CUG)109 RNA and thereby is retained on the microtiter plate. The binding of complementing fragment of beta-galactosidase to PL reconstitutes its enzymatic activity. This activity is then determined by adding substrate to provide a fluorescence or chemiluminescence signal from active beta-galactosidase. […]
(CUG)109 transcripts are tethered to the surface of a streptavidin-coated microtiter plate using a capture oligonucleotide that is biotinylated. […] Recombinant human MBNL1 is expressed as a fusion with the PL fragment of beta-galactosidase. […] This activity is then determined by adding substrate to provide a fluorescence or chemiluminescence signal from active beta-galactosidase. […]

`CCCN(CCCN(C)C)c1cc(/C=C2/Sc3ccccc3N2C)c2ccccc2[n+]1-c1ccccc1` [SybrGreen]: the “amount of MBNL1-PL retained on plate (beta-galactosidase activity)” value was “reduce the amount of MBNL1-PL retained on plate”.
